Data as given in patent US20120005765A1, “ANIMAL MODEL FOR PARKINSON'S DISEASE” (Saint Louis University, priority 2010, published 2012).
Entries after “also recorded” stand apart in the source; their conditions may differ.

What was measured:
[1] = tested on: PC12 cells; assay: DOPAL toxicity in vitro, viable PC12 cell count (trypan blue); settings: for PC 12 cells/well × 103: rat
Experimental: Determination of DOPAL toxicity in vitro Toxicity experiments were essentially as described previously. PC12 cultures were initially expanded in T-75 flasks with 20 ml Dulbecco's Modified Eagle's Medium supplemented with 4.5 g/l glucose, 4 mM L-glutamine, 5% fetal calf serum, 10% horse serum, 1000 units/l penicillin, and 100 mg/l streptomycin. Cells were transferred to six well culture plates with 2 ml media and grown to 1.5×10^5 cells/well, treated with 50 ng/ml nerve growth factor (NGF), and maintained in NGF-containing media for 7 d prior to experimentation. The medium was changed every 2-3 d. […] During the experiments, the medium was replaced once a day. Cells were detached with buffered saline containing EDT A, centrifuged at 200×g and resuspended in trypan blue for counting of viable cells. […] DOPAL and other compounds were added as described in the description of the figure and examples. Data was analyzed by ANOVA.
DOPAL, as well as other physiologically metabolites and adducts, were added to PC12 cells in culture at concentrations that were physiologically relevant.

[2] = tested on: dopaminergic neurons in the substantia nigra; assay: Tyrosine hydroxylase immunohistochemistry and densitometry after DOPAL injection into substantia nigra; format: in vivo, rat
Experimental: Immunohistochemistry. Eighteen hours (two rats) or 5 days following the surgery the rats were anesthetized and perfused through the left ventricle of the heart with 0.1 M phosphate buffer containing 4% paraformaldehyde. The brains were removed, post-fixed for at least 4 h, sunk in 25% sucrose, and sectioned frozen at 50 pm with a sliding microtome. Adjacent series of sections were subjected to a conventional immunoperoxidase protocol using antibodies against tyrosine hydroxylase (TH; Sigma, monoclonal, made in […], used at a dilution of 1:6000), neuronal nuclear antigen (NeuN, Chemicon, Temecula, Calif., USA, made in rabbit, used at 1:20,000) or glial fibrillary acidic protein (GFAP, made in rabbit, used at 1:5000). Briefly, the sections were immersed overnight in 0.1 M Sorenson's phosphate buffer (SPB, pH 7.4) containing 0.2% Triton X-100 (SPB/Triton) and primary antibody with agitation. The following morning they were thrice rinsed in SPB/Triton and immersed for 1 h in SPB/Triton containing biotinylated secondary antibodies against the host species of the primary antibodies, used at a dilution of 1:200. The sections were again thrice rinsed in SPB/Triton and then immersed in SPB/Triton containing ABC reagents (Vector, Burlingame, Calif., USA) used at a dilution of 1:200. After further rinsing in SPB the sections were reacted with 3,3-diaminobenzidine (DAB) and hydrogen peroxide to produce an insoluble brown reaction product that was further intensified with osmium and thiocarbohydrazide as has been described. All immersions and rinses were done at room temperature. In addition, a series of sections from many of the brains was mounted and processed for Nissl staining using a standard cresyl violet staining procedure. […]
Determination of DOPAL-induced Parkinson's disease-like behavior Injections of DOPAL or ALDH1A1 antisense oligo into rat SN. […] After 5-7 weeks, rats were injected with apomorphine (0.4 mg/kg, subcutaneously) and rotational asymmetry determined in each group just prior to sacrifice. […]

[3] = biological target: T1, α-synuclein (Rattus norvegicus, UniProt P37377); assay: DOPAL-triggered α-synuclein aggregation in vivo, intranigral injection, Western blot; settings: rat SN injected with 1 μg or 0.2 μg DOPAL, 1 and 4 hours
T1 construct: from tissue; host or cells: substantia nigra of Sprague-Dawley rats
Text: Western blot of DOPAL-triggered AS aggregation in vivo Intranigral DOPAL injections and tissue preparation for Western blot. The housing and nutrition of the rats used in this study and all procedures performed on them conformed to standards set forth in the Guide for the Care and Use of Laboratory Animals of the National Research Council (National Academy Press, 1996). The experimental protocols reported herein were reviewed and approved by the Animal Care Committee of the Saint Louis University.
The details of the surgical and immunohistochemical methods have been previously described (Burke et al., Brain Res 989:205-213, 2003). Briefly, 2-month-old Sprague-Dawley rats (300 g; Harlan, Indianapolis, Ind., USA) were deeply anesthetized with 4% induction and maintained with 1% isoflurane. The heads of the rats were fixed in a stereotaxic apparatus (David Kopf, Tujunga, CA, USA). […]
Rats for Western blot analysis were killed after 4 h by injecting pentobarbital (100 mg/kg, IP). […] The black microspheres were identified in the pellets and supernatants were analyzed with Western blot as described above using AS 202 and J3-actin antibodies. For the 4-h 1.0-μg DOPAL and control SN injections, the density of the bands on the blot was determined using the UnScan it program (Silk Scientific, Orem, Utah, USA). The results were expressed as units of AS aggregate/unit of actin. […]

O=CCc1ccc(O)c(O)c1 [DOPAL, 3,4-dihydroxyphenylacetaldehyde]
toxic in vitro at physiological levels [1]: toxic
PC 12 cells/well × 103 ([1]; 6.6 μM): 105 ± 12b cells/well × 103
PC 12 cells/well × 103 ([1]; 30 μM): 107 ± 10b cells/well × 103
PC 12 cells/well × 103 ([1]; 66 μM): 100 ± 5a cells/well × 103
immunoreactivity of TH in the SN ipsilateral to injection ([2]; vs contralateral non-injected side): decrease
reduction in TH immunoreactivity in the striatum ipsilateral to injection ([2]; vs contralateral non-injected side, background subtracted): 28%
loss of TH immunoreactivity by spot density, ventrolateral striatum ipsilateral to injection ([2]; vs contralateral side): 80%
aggregation of α-synuclein in vivo [3]: triggers a selective dose and time dependent aggregation; also recorded: even small amounts of DOPAL still aggregate α-synuclein
